Legend:
Plutella xylostella = assay: Insecticidal test on Plutella xylostella; assay type: in vivo; settings: 144 h, Chinese cabbage seedling dip, 6 days after the dip treatment, read-out: activity level (corrected mortality rate)
Description: Example 15: Insecticidal Test on Plutella xylostella
The N-oxide compounds of formula (I), (Ia) and (Ib) of the present invention or salts thereof are separately dispersed in water and diluted to 500 ppm. Ten adults of Plutella xylostella are released onto Chinese cabbage seedlings and allowed to lay eggs thereon. 2 days after the release of the adults, the seedling is dipped in the dispersion for about 30 seconds. After air dried, the seedling is kept in a room at 25° C. 6 days after the dip treatment, the numbers of the dead and alive insects are counted. The corrected mortality rate is calculated according to the following formula and the insecticidal activity is evaluated according to the following criteria.
(§1) [formula] [formula] • A: the corrected mortality rate is 100% • B: the corrected mortality rate is 90 to 99% • C: the corrected mortality rate is 80 to 89% • D: the corrected mortality rate is 50 to 79%

adult C. felis fleas [1] = assay: Ingestion activity against adult Ctenocephalides felis (membrane feeding, motility); settings: 48 h, ingestion in bovine blood, % motility reduction 48h post treatment
Description: Example 6: Screening Method to Test Ingestion Activity of N-Oxide Compounds of Formula (I), (Ia) or (Ib) Against Adult Ctenocephalides felis
N-oxide compounds of formula (I), (Ia) and (Ib) dissolved in 100% DMSO are added to bovine blood and offered via an artificial membrane feeding system to adult C. felis fleas. The motility of fleas is then visually inspected 48h post treatment. Efficacy is expressed in % motility reduction compared to controls containing blood treated with DMSO only. A dose response series is implemented to determine EC50 values.

adult C. felis fleas [2] = assay: Ingestion activity against adult Ctenocephalides felis (alternative method, membrane feeding, mortality); settings: bovine blood, mortality at 48 hours post-treatment
Description: Selected N-oxide compounds of formula (I), (Ia) and (Ib) and compound “P23” of WO 2016/030229 dissolved in 100% DMSO are diluted in bovine blood with sodium heparin anti-coagulant. The resulting formulation is offered via an artificial membrane feeding system to approximately 15 adult C. felis fleas previously dispensed into 24-well plates. The plates are then incubated in a double-chambered device. Visual evaluation for mortality is performed at 48 hours post-treatment. Compound efficacy at a given dose is expressed as percentage mortality and determined by normalization to positive and negative controls. A dose response series is implemented to determine EC50 values.
Example 7: Screening Method to Test Ingestion Activity of N-Oxide Compounds of Formula (I), (Ia) or (Ib) Against Adult Ctenocephalides felis (Alternative Method)
N-oxide compounds of formula (I), (Ia) and (Ib) dissolved in 100% DMSO are diluted in bovine blood with sodium heparin anti-coagulant. The resulting formulation is offered via an artificial membrane feeding system to approximately 15 adult C. felis fleas previously dispensed into 24-well plates. The plates are then incubated in a double-chambered device. Visual evaluation for mortality is performed at 48 hours post-treatment. Compound efficacy at a given dose is expressed as percentage mortality and determined by normalization to positive and negative controls. A dose response series is implemented to determine EC50 values.
The structurally closest prior art compound “P23” of WO 2016/030229 is characterized vis-à-vis selected N-oxide compounds of formula (I), (Ia) and (Ib) with regard to their potency in in vitro screening assay to test ingestion activity against adult fleas (Ctenocephalides felis) (alternative method according to Example 7).

Laodelphax striatellus = assay: Insecticidal test on Laodelphax striatellus; assay type: in vivo; settings: 192 h, rice seedling dip, 3rd-instar nymphs, 8 days after inoculation, read-out: activity level (corrected mortality rate)
Description: Example 16: Insecticidal Test on Laodelphax striatellus
The N-oxide compounds of formula (I), (Ia) and (Ib) of the present invention or salts thereof are separately dispersed in water and diluted to 500 ppm. Rice plant seedlings are dipped in the dispersion for about 30 seconds. After air dried, the seedlings are put into a separate glass test tube and inoculated with ten 3rd-instar nymphs of Laodelphax striatellus and then the glass test tube is kept in a room at 25° C. 8 days after the inoculation, the numbers of the dead and alive insects are counted. The corrected mortality rate is calculated according to the following formula and the insecticidal activity is evaluated according to the following criteria.
as §1

[3] = system: adult Ctenocephalides felis fleas; assay: Contact activity against adult Ctenocephalides felis; settings: adult C. felis, mortality at 72 hours post-treatment
Description: Example 4: Screening Method to Test Contact Activity of N-Oxide Compounds of Formula (I), (Ia) or (Ib) Against Adult Ctenocephalides felis
N-oxide compounds of formula (I), (Ia) and (Ib) dissolved in 100% DMSO are diluted in acetone to a desired concentration. The resulting formulation is used to coat the fibers of a 0.5-inch-long piece of pipe cleaner placed in a glass scintillation vial. The vial is capped with a rubber gasket and filter paper insert. After the acetone has evaporated, ten adult Ctenocephalides felis fleas are added to each vial. The vials are then incubated at 22° C., 80% relative humidity, and 12 hours of light/12 hours of dark until a visual evaluation for mortality is performed at 72 hours post-treatment. Compound efficacy at a given dose is expressed as percentage mortality and adjusted to remove background mortality observed in control vials containing DMSO only. A dose response series of treated vials is implemented to determine EC50 values.

Spodoptera litura = assay: Insecticidal test on Spodoptera litura; assay type: in vivo; settings: foliar, 192 h, cabbage leaf dip, 2nd-instar larvae, 8 days after inoculation, read-out: activity level (corrected mortality rate)
Description: Example 14: Insecticidal Test on Spodoptera litura
The N-oxide compounds of formula (I), (Ia) and (Ib) of the present invention or salts thereof are separately dispersed in water and diluted to 500 ppm. Cabbage leaves are dipped in the dispersion for about 30 seconds. After air dried, the leaves are placed in a plastic Petri dish with a diameter of 9 cm and inoculated with ten 2nd-instar larvae of Spodoptera litura, after which the dish is closed and then allowed to stand in a room at 25° C. 8 days after the inoculation, the numbers of the dead and alive insects are counted. The corrected mortality rate is calculated according to the following formula and the insecticidal activity is evaluated according to the following criteria.
as §1

A. aegypti L1 larvae = assay: Screening against larvae of Aedes aegypti; settings: 48 h at 27° C., percentage of mortality
Description: Example 3: Screening Method to Test Activity of N-Oxide Compounds of Formula (I), (Ia) or (Ib) Against Larvae of Aedes aegypti
Eight A. aegypti L1 larvae in a total volume of 64 μL water are added to 384-well microplates containing N-oxide compounds of formula (I), (Ia) and (Ib) formulated in 100% DMSO. The plates are incubated for 48 h at 27° C. Individual well images are acquired and analyzed using a pipeline to quantitatively assess the amount of larvae biomass accumulating at the bottom of the well. The efficacy of a compound at a given dose is expressed as “percentage of mortality” and determined by comparison to average biomass descriptors of positive and negative control wells containing 1.0 μM Fipronil or DMSO only, respectively. Dose response assay are conducted to determine an EC50 value.

[4] = system: adult R. sanguineus ticks; assay: Contact activity against adult Rhipicephalus sanguineus; settings: mortality at 48 hours post-treatment
Description: Example 5: Screening Method to Test Contact Activity of N-Oxide Compounds of Formula (I), (Ia) or (Ib) Against Adult Rhipicephalus sanguineus
N-oxide compounds of formula (I), (Ia) and (Ib) formulated in 100% DMSO are diluted in a solution containing acetone and Triton X-100 (0.02%). The resulting formulation is used to coat the inner walls of glass scintillation vials and the filter paper covering the cap of the vial. Once dried, ten adult R. sanguineus ticks are added to the vials. The vials are incubated at 24° C., 95% relative humidity, and 12 hours of light/12 hours of dark until evaluation. Ticks are visually evaluated for mortality at 48 hours post-treatment. Compound efficacy at a given dose is expressed as percentage mortality. A dose response series was implemented to determine EC50 values.

| EC50 (adult C. felis fleas [1]) [µM] | SMILES | mortality at 500 ppm (Plutella xylostella) [%] | EC50 (adult C. felis fleas [2]) [µM] | mortality at 500 ppm (Laodelphax striatellus) [%] | EC50 [3] [µM] | mortality at 500 ppm (Spodoptera litura) [%] | EC50 (A. aegypti L1 larvae) [µM] | EC50 [4] [µM] |
| --- | --- | --- | --- | --- | --- | --- | --- | --- |
| < 10 | CCS(=O)(=O)c1cc(-c2noc(C3CC3)n2)cnc1-c1nc2cc(C(F)(F)C(F)(F)F)n[n+]([O-])c2n1C [Compound 1, 6-[5-(5-cyclopropyl-1,2,4-oxadiazol-3-yl)-3-(ethanesulfonyl)pyridin-2-yl]-7-methyl-3-(1,1,2,2,2-pentafluoroethyl)-7H-imidazo[4,5-c]pyridazin-1-ium-1-olate] | 100 | 0.783 | 100 | 10 to 100 | – | – | – |
| < 10 | CCS(=O)(=O)c1cc(-c2noc(C3CC3)n2)cnc1-c1nc2cc(C(F)(F)C(F)(F)F)[n+]([O-])nc2n1C [Compound 2, 6-[5-(5-cyclopropyl-1,2,4-oxadiazol-3-yl)-3-(ethanesulfonyl)pyridin-2-yl]-7-methyl-3-(1,1,2,2,2-pentafluoroethyl)-7H-imidazo[4,5-c]pyridazin-2-ium-2-olate] | – | – | – | 10 to 100 | – | – | – |
| < 10 | CCS(=O)(=O)c1cc(-c2noc(C3CC3)n2)c[n+]([O-])c1-c1nc2cc(C(F)(F)C(F)(F)F)nnc2n1C [Compound 3, 5-(5-cyclopropyl-1,2,4-oxadiazol-3-yl)-3-(ethanesulfonyl)-2-[7-methyl-3-(1,1,2,2,2-pentafluoroethyl)-7H-imidazo[4,5-c]pyridazin-6-yl]pyridin-1-ium-1-olate] | – | – | – | – | – | – | – |
| 10 to 100 | CCS(=O)(=O)c1cc(-c2noc(C3CC3)n2)c[n+]([O-])c1-c1nc2cc(C(F)(F)C(F)(F)F)n[n+]([O-])c2n1C [Compound 4, 5-(5-cyclopropyl-1,2,4-oxadiazol-3-yl)-3-(ethanesulfonyl)-2-[7-methyl-1-oxido-3-(1,1,2,2,2-pentafluoroethyl)-7H-imidazo[4,5-c]pyridazin-1-ium-6-yl]pyridin-1-ium-1-olate] | – | – | – | – | – | – | – |
| – | CCS(=O)(=O)c1cc(-c2noc(C3(C(F)(F)F)CC3)n2)cnc1-c1n(C)c2ncc(C(C)(F)F)cc2[n+]1[O-] [Compound 7] | – | 0.41 | – | – | – | – | – |
| 10 to 100 | CCS(=O)(=O)c1cc(-c2ccc(C3CC3)cc2)c[n+]([O-])c1-c1nc2cc(C(F)(F)C(F)(F)F)cnc2n1C [Compound 23] | – | – | – | – | – | – | – |
| < 10 | CCS(=O)(=O)c1cc(-c2ccc(C3(F)CC3)cc2)c[n+]([O-])c1-c1nc2cc(C(F)(F)C(F)(F)F)nnc2n1C [Compound 27] | 100 | 0.46 | 100 | – | – | < 0.04 | – |
| 10 to 100 | CCS(=O)(=O)c1cc(-c2cc(C3CC3)ccn2)cnc1-c1nc2cc(C(F)(F)C(F)(F)F)c[n+]([O-])c2n1C [Compound 29] | – | – | – | – | – | 0.04 to 0.05 | – |
| < 10 | CCS(=O)(=O)c1cc(-c2noc(C3CC3)n2)cnc1-c1nc2cc(C(F)(F)C(F)(F)F)c[n+]([O-])c2n1C [Compound 33] | 100 | 0.889 | 100 | < 10 | – | – | 10 to 100 |
| 10 to 100 | CCS(=O)(=O)c1cc(-c2ccc(C3(F)CC3)cc2)cnc1-c1nc2cc(C(F)(F)C(F)(F)F)n[n+]([O-])c2n1C [Compound 36] | 100 | 1.06 | 100 | – | – | < 0.04 | 10 to 100 |
| – | CCS(=O)(=O)c1cc(-c2noc(C3CC3)n2)cnc1-c1nc2cc(C(C)(F)F)n[n+]([O-])c2n1C [Compound 39] | 100 | 0.454 | 100 | – | – | – | – |
| – | CCS(=O)(=O)c1cc(-c2noc(C3CC3)n2)cnc1-c1nc2cc(C(C)(F)F)[n+]([O-])nc2n1C [Compound 40] | – | 0.807 | – | – | – | – | – |
| – | CCS(=O)(=O)c1cc(-c2ccc(C3(C#N)CC3)cc2)c[n+]([O-])c1-c1nc2cc(C(F)(F)F)cn(CC(F)F)c-2c1F [Compound 44, 5-[4-(1-cyanocyclopropyl)phenyl]-2-[4-(2,2-difluoroethyl)-3-fluoro-6-(trifluoromethyl)-4H-pyrrolo[3,2-b]pyridin-2-yl]-3-(ethanesulfonyl)pyridin-1-ium-1-olate] | – | – | – | 10 to 100 | – | – | – |
| < 10 | CCS(=O)(=O)c1cc(-c2ccc(C3(F)CC3)cc2)c[n+]([O-])c1-c1nc2cc(C(F)(F)C(F)(F)F)n[n+]([O-])c2n1C [Compound 45] | – | – | – | – | – | < 0.04 | – |

| SMILES | EC50 (adult C. felis fleas [1]) [µM] | mortality at 500 ppm (Plutella xylostella) [%] | EC50 (adult C. felis fleas [2]) [µM] | mortality at 500 ppm (Laodelphax striatellus) [%] | EC50 [3] [µM] | mortality at 500 ppm (Spodoptera litura) [%] | EC50 (A. aegypti L1 larvae) [µM] | EC50 [4] [µM] |
| --- | --- | --- | --- | --- | --- | --- | --- | --- |
| CCS(=O)(=O)c1cc(-c2noc(C3(C(F)(F)F)CC3)n2)cnc1-c1nc2cc(C(C)(F)F)n[n+]([O-])c2n1C [Compound 8] | < 10 | 100 | 0.141 | 100 | 10 to 100 | 100 | – | – |
